The text below walks through data of patent publication US10245261B2, “Substituted indol-5-ol derivatives and their therapeutic applications” (NantBioScience, Inc., priority 2013, dated 2019).

Structures are written as SMILES.

For data set [1], the system named is NCI 60 cancer cell line panel. The experiment in a line: NCI-60 DTP Human Tumor Cell Line Panel, SRB growth inhibition. Type of data set: cell-based. The conditions noted are these: cell lines from the NCI 60 panel. The protocol:
The human tumor cell lines of the cancer screening panel are grown in RPMI 1640 medium containing 5% fetal bovine serum and 2 mM L-glutamine. For a typical screening experiment, cells are inoculated into 96 well microtiter plates in 100 μL at plating densities ranging from 5,000 to 40,000 cells/well depending on the doubling time of individual cell lines. After cell inoculation, the microtiter plates are incubated at 37° C., 5% CO2, 95% air and 100% relative humidity for 24 h prior to addition of experimental drugs.
After 24 h, two plates of each cell line are fixed in situ with TCA, to represent a measurement of the cell population for each cell line at the time of drug addition (Tz). Experimental drugs are solubilized in dimethyl sulfoxide at 400-fold the desired final maximum test concentration and stored frozen prior to use. At the time of drug addition, an aliquot of frozen concentrate is thawed and diluted to twice the desired final maximum test concentration with complete medium containing 50 μg/ml gentamicin. Additional four, 10-fold or ½ log serial dilutions are made to provide a total of five drug concentrations plus control. Aliquots of 100 μl of these different drug dilutions are added to the appropriate microtiter wells already containing 100 μl of medium, resulting in the required final drug concentrations.
Following drug addition, the plates are incubated for an additional 48 h at 37° C., 5% CO2, 95% air, and 100% relative humidity. For adherent cells, the assay is terminated by the addition of cold TCA. Cells are fixed in situ by the gentle addition of 50 μl of cold 50% (w/v) TCA (final concentration, 10% TCA) and incubated for 60 minutes at 4° C. The supernatant is discarded, and the plates are washed five times with tap water and air dried. Sulforhodamine B (SRB) solution (100 μl) at 0.4% (w/v) in 1% acetic acid is added to each well, and plates are incubated for 10 minutes at room temperature. After staining, unbound dye is removed by washing five times with 1% acetic acid and the plates are air dried. Bound stain is subsequently solubilized with 10 mM trizma base, and the absorbance is read on an automated plate reader at a wavelength of 515 nm. For suspension cells, the methodology is the same except that the assay is terminated by fixing settled cells at the bottom of the wells by gently adding 50 μl of 80% TCA (final concentration, 16% TCA). Using the seven absorbance measurements [time zero, (Tz), control growth, (C), and test growth in the presence of drug at the five concentration levels (Ti)], the percentage growth is calculated at each of the drug concentrations levels. Percentage growth inhibition is calculated as: [(Ti−Tz)/(C−Tz)]×100 for concentrations for which Ti>/=Tz [(Ti−Tz)/Tz]×100 for concentrations for which Ti<Tz.
Three dose response parameters are calculated for each experimental agent.

Data set [2] concerns human MV411 human acute myelogenous leukemia (AML) xenograft. As to the kind of experiment: AML xenograft model in female SCID mice. Type of data set: in vivo, mouse. The protocol: The objective of the first study was to evaluate antitumor activities of the novel multiple-kinase inhibitor NTW-3475 against human MV411 human acute myelogenous leukemia (AML) xenograft model in female SCID mice.
Four or six animals were randomly assigned to each study group. Each animal was injected subcutaneously in the left and right flank area with 0.1 ml of 1.0×10^8 MV411 cells per mL.
Each test or control animal was placed on a 5-day on, two-day off for two cycles of vehicle negative control or 25, 50 mg/kg of NTW-3475. Tumor growth was measured with a digital hand held caliper twice weekly (once tumor emerges) prior to the first dosing and then two to three times weekly until euthanized. Animals were weighed prior to tumor cell injection, prior to dosing, two to three times weekly with tumor growth measurements, and prior to euthanasia.
The objective of the first study was to evaluate antitumor activities of the novel multiple-kinase inhibitor Compounds 11, 68, and 82 against human MV411 human acute myelogenous leukemia (AML) xenograft model in female SCID mice.
Each test or control animal was placed on a 5-day on, two-day off for two cycles of vehicle negative control or 25, 50 mg/kg of compound. Tumor growth was measured with a digital hand held caliper twice weekly (once tumor emerges) prior to the first dosing and then two to three times weekly until euthanized. Animals were weighed prior to tumor cell injection, prior to dosing, two to three times weekly with tumor growth measurements, and prior to euthanasia.

For data set [3], the system named is human K562 chronic myelogenous leukemia (CML) xenograft. The experiment in a line: CML xenograft model in female SCID mice. Type of data set: in vivo, mouse. The protocol: The objective of the second study was to evaluate antitumor activities of novel multiple-kinase inhibitor NTW-3475 in human K562 chronic myelogenous leukemia (CML) xenograft model in female SCID mice.
Four to six animals were randomly assigned to study groups. Each animal was weighed, and then injected subcutaneously in the left and right flank area with 0.1 ml of 8.0×10^7 K562 cells per mL.
Each test or control animal was on a 5-day on, two-day off for two cycles treatment schedule. Tumor growth was measured with a digital hand held caliper twice weekly (once tumor emerges) prior to the first dosing and then two to three times weekly until euthanized. Animals were weighed prior to tumor cell injection, prior to dosing, two to three times weekly with tumor growth measurements, and prior to euthanasia.
This example illustrated antitumor activities of Compound 10 and 11 in human K562 chronic myelogenous leukemia (CML) xenograft model in female SCID mice.
On the appropriate days, each animal in an appropriate group will receive a specific amount of test article either at 75 or 100 mg/kg, and the dosing volume is 10 ml/kg by oral gavage as indicated. Dosing schedule will be once daily for 10 days (qd×10, 5 days on and 2 days off for 2 cycles).

Data set [4] has as its system human MIAPaCa-2 pancreatic carcinoma xenograft. The experiment in a line: Pancreatic carcinoma xenograft in athymic nude mice. Type of data set: in vivo, mouse. The conditions noted are these: MIAPaCa-2 xenograft. As for the experimental part:
The objective of the third study was to evaluate antitumor activities of novel multiple-kinase inhibitor NTW-3475 in human MIAPaCa-2 pancreatic carcinoma xenograft in athymic nude-Faxn1 mice.
Four animals were randomly assigned to study groups. Each animal was weighed, and then injected subcutaneously in the left and right flank area with 0.1 ml of 5.0×10^7 MIAPaCa-2 cells per mL.
Each test or control animal was on a 5-day on, two-day off for two cycles treatment schedule with negative control vehicle, positive control Abraxane at 20 mg/kg or 25, 50 mg/kg of NTW-3475. Tumor growth was measured with a digital hand held caliper twice weekly (once tumor emerges) prior to the first dosing and then two to three times weekly until euthanized.
The objective of the third study was to evaluate antitumor activities of novel multiple-kinase inhibitor Compound 10, 11, 12, 53, 68, 82, 83, 88, and 90 in human MIAPaCa-2 pancreatic carcinoma xenograft in athymic nude-Faxn1 mice.
Each test or control animal was on a 5-day on, two-day off for three cycles treatment schedule with negative control vehicle or 40 mg/kg of Compound 10, 11, 12, 53, 68, 82, 83, 88 and 90. Tumor growth was measured with a digital hand held caliper twice weekly (once tumor emerges) prior to the first dosing and then two to three times weekly until euthanized.

Data set [5] concerns TT human Thyroid carcinoma xenograft. The experiment in a line: Thyroid carcinoma xenograft. Type of data set: in vivo, mouse. The protocol: This example assesses Compound 10, 53 and 88's anti-tumor activity using a SCID mouse xenograft models for TT human Thyroid carcinoma xenograft (FIGS. 65 to 69.)
On the appropriate days, each animal in an appropriate group will receive a specific amount of Compound 10 either at 50 or 100 mg/kg, and the dosing volume is 10 ml/kg by oral gavage as indicated. Dosing schedule will be once daily for 30 days.
On the appropriate days, each animal in an appropriate group will receive a specific amount of Compound 53 either at 50 or 100 mg/kg, and the dosing volume is 10 ml/kg by oral gavage as indicated. Dosing schedule will be once daily for 30 days.
Dosing schedule will be once daily for 30 days.

Data set [6] concerns AN3 human endometrial carcinoma xenograft. As to the kind of experiment: Endometrial carcinoma xenograft. Type of data set: in vivo, mouse.

Take `Cc1cc2c(F)c(Oc3nc(Nc4cc(C5CC5)[nH]n4)cc(N4CCN(C)CC4)n3)cc(F)c2[nH]1` [NTW-3475]: the antiproliferative activity result in data set [1] is recorded as “strong antiproliferative activity”. The anti-tumor effect entry in data set [2] is recorded as “strong anti-tumor effect”; in data set [3], “strong anti-tumor effect”; in data set [4] (nude mice, single agent) it was “strong anti-tumor effect”; in data set [5] it was “anti-tumor effect”; in data set [6], “anti-tumor effect”. The body weight change result in data set [2] was “minimal body weight lost”. Besides, the “anti-tumor effect in combination with Abraxane” value in data set [4] (combination with Abraxane) is “anti-tumor effect”.
